The record followed here is patent publication US20060073154A1 (priority 2001, published 2006).

Test [1] concerns streptococcal strain D471 adherence to Detroit 562 pharyngeal cells. It counts as cell-based, S. pyogenes.
For test [2], the system named is strain JRS75 adherence to Detroit 562 pharyngeal cells. In words: Pharyngeal cell adherence assay with isogenic M-negative mutant. It counts as cell-based, S. pyogenes. The settings on record: bacteria preincubated with sialic acid. On the procedure:
Pharyngeal cell adherence and invasion assay. Streptococcal adherence to and invasion of the human pharyngeal cell line, Detroit 562, was assayed by modification of a procedure described previously (Talbot, U. M., et al., Infect. Immun. 64:3772-3777, 1996). Overnight cultures of streptococci were pelleted by centrifugation and washed twice in sterile PBS. The cultures were resuspended in MEM and diluted to a final concentration of 5×10^7 CFU/ml, and 1 ml aliquots were inoculated into each well containing washed Detroit cell monolayers. At least 3 wells were used for each bacterial strain or culture condition. Following a 3 h incubation period with the bacteria at 37° C., the monolayers were washed three times in PBS.
For the bacterial invasion assay, 1 ml of MEM supplemented with penicillin (10 μg/ml) and gentamicin (200 μg/ml) was added to each well (to kill extracellular bacteria) and incubated for 1 h at 37° C. […] The total number of adherent streptococci was calculated as the difference between the total number of adherent and invasive bacteria and the number of invasive bacteria alone.
Effect of monosaccharides on streptococcal adherence to pharyngeal cells. The effect of various monosaccharides on streptococcal adherence to pharyngeal cell monolayers was assessed in inhibition assays. […]

For `CC(=O)N[C@H]1[C@H]([C@H](O)[C@H](O)CO)O[C@@](O[C@H]2[C@@H](O)[C@@H](CO)O[C@@H](O[C@H]3[C@H](O)[C@@H](O)C(O)O[C@@H]3CO)[C@@H]2O)(C(=O)O)C[C@@H]1O` (stereo partly drawn) [3′SL, NeuAcα2-3Galβ1-4Glc], the “effect on adherence of strain D471 to cultured pharyngeal cells” value in test [1] is listed as “no significant effect”.

`CC(=O)NC1C(O)CC(OCC2OC(OC3C(CO)OC(O)C(O)C3O)C(O)C(O)C2O)(C(=O)O)OC1C(O)C(O)CO` (stereo not drawn) [6′SL, NeuACα2-6Galβ1-4Glc]: the “reduced binding of strain D471 to pharyngeal cells” value in test [1] is listed as “approximately 85%”.

For the molecule `CC(=O)N[C@H]1[C@H]([C@H](O)[C@H](O)CO)OC(O)(C(=O)O)C[C@@H]1O` (stereo partly drawn) [sialic acid, N-acetylneuraminic acid], in test [1], the “effect on adherence of strain D471 to pharyngeal cells” value is “significantly decreased”. For the same molecule, in test [2], the “effect on adherence of JRS75 (M-negative mutant) to pharyngeal cells” value is listed as “not affected”.

As for “transferrin: sialylated glycoprotein whose oligosaccharides terminate only in α2-6 linked sialic acid”, the “reduced adherence of strain D471 to cultured pharyngeal cells” value in test [1] was “approximately 90%”.

B1: Fetuin: sialylated glycoprotein containing both α2-3 and α2-6 sialic acid linkages (protein, UniProt P12763 19-359, looked up)
Alpha-2-HS-glycoprotein: IPLDPVAGYKEPACDDPDTEQAALAAVDYINKHLPRGYKHTLNQIDSVKVWPRRPTGEVYDIEIDTLETTCHVLDPTPLANCSVRQQTQHAVEGDCDIHVLKQDGQFSVLFTKCDSSPDSAEDVRKLCPDCPLLAPLNDSRVVHAVEVALATFNAESNGSYLQLVEISRAQFVPLPVSVSVEFAVAATDCIAKEVVDPTKCNLLAEKQYGFCKGSVIQKALGGEDVRVTCTLFQTQPVIPQPQPDGAEAEAPSAVPDAAGPTPSAAGPPVASVVVGPSVVAVPLPLHRAHYDLRHTFSGVASVESSSGEAFHVGKTPIVGQPSIPGGPVRLCPGRIRYFKI
As for B1, the “decrease of adherence of strain D471 to pharyngeal cells” value in test [1] was “approximately 30%”.
